Legend:
CbTan1 = CbTan1 (Clostridium butyricum, UniProt C4IC90)
CbTan2 = CbTan2 (Clostridium butyricum, UniProt A0A6M0U600)
Chain of CbTan2 (A0A6M0U600 1-490 limits assumed): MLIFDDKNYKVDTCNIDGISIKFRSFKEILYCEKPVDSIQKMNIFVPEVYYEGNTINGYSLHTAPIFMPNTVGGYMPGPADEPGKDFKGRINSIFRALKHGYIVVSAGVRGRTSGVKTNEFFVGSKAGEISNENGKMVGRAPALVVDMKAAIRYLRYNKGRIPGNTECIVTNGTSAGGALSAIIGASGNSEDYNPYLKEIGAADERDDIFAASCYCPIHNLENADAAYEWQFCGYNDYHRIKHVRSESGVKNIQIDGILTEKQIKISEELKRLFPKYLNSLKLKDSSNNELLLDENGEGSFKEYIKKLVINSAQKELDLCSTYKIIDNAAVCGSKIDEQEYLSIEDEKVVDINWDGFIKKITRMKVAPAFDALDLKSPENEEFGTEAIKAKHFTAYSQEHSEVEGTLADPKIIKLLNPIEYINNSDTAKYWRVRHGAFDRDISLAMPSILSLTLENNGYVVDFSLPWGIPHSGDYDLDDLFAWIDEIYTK

Chain of CbTan1 (C4IC90 25-633 limits assumed): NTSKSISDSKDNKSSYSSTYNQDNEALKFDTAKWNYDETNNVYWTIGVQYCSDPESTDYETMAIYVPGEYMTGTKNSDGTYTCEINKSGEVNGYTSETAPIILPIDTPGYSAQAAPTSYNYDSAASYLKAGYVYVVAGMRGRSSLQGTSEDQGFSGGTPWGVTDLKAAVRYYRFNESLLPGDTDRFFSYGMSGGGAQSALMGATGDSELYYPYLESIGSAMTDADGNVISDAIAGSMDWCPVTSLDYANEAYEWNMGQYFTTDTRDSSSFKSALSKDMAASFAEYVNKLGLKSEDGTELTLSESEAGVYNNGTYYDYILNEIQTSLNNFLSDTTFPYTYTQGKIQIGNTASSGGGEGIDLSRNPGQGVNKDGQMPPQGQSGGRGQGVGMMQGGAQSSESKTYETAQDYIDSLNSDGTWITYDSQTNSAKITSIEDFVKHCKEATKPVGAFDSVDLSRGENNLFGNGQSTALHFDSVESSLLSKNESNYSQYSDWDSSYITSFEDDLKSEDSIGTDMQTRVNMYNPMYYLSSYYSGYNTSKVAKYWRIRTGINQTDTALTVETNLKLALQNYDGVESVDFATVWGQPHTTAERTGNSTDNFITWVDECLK

SMILES	K i (mM) ^a (CbTan1)	K i (mM) ^a (CbTan2)
O=C(O[C@@H]1Cc2c(O)cc(O)cc2O[C@@H]1c1cc(O)c(O)c(O)c1)c1cc(O)c(O)c(O)c1 [EGCG, epigallocatechin gallate]	1.11 ± 0.54 mM	1.92 ± 0.59 mM
O=C(O[C@@H]1O[C@H](CO)[C@@H](O)[C@H](O)[C@H]1O)c1cc(O)c(O)c(O)c1 [GG, β-glucogallin]	35.9 ± 6.77 mM	8.51 ± 2.39 mM
COC(=O)c1cc(O)c(O)c(O)c1 [MG, methyl gallate]	–	44.0 ± 6.42 mM
